In publication PMC4790851, “Iminosugars Inhibit Dengue Virus Production via Inhibition of ER Alpha-Glucosidases—Not Glycolipid Processing Enzymes” (PLoS Neglected Tropical Diseases, 2016):

How the values were obtained:
DENV2 strain 16681 = experiment: Infectious virus (plaque assay) and total virus (qRT-PCR for DENV RNA) secreted from infected MDMΦs; type: cell-based, dengue virus serotype 2; conditions: serial dilution, 48 h post-infection, normalized to untreated
Protocol: MDMΦ were infected with DENV2 16681 diluted to a multiplicity of infection (MOI) of 1 in X-VIVO10 without supplements for 90 minutes (20°C, with rocking). Upon removal of virus, fresh MDMΦ growth medium without IL-4 but containing serial dilutions of drug or control was placed on the cells, and cells were incubated for 48 hours (37°C, 5% CO2). For collection of infectious virus, supernatant was harvested and centrifuged for 5 minutes (room temperature, 400 x g) to pellet any cells/debris, and supernatants were aliquoted and stored at -80°C until analysis by plaque assay. […]
Virus titres for samples from human MDMΦ and C6/36 infections were obtained by LLC-MK2 plaque assays as per previous descriptions. […] A second-overlay containing nutrients, low-melting point tissue culture-grade agarose, and neutral red stain [33] was added and allowed to solidify at 20°C before further incubation for 1 day (37°C, 5% CO2) after which plaques were counted by eye. […]
DENV RNA in cell culture supernatants was isolated according to the manufacturer’s protocol for Direct-zol RNA MiniPrep Kit (Zymo Research) and assayed by reverse transcription-real time polymerase chain reaction (qRT-PCR) on an Applied Biosystems 7500 real-time PCR system (Life Technologies). […] Samples were read in technical duplicate and compared to a standard curve generated from high-titer viral RNA isolated from C6/36-grown DENV2. […]

dengue infection = system: dengue infection; parameters: method as in PMID 24877997, PMID 12355369; conditions: oral, 400 mg loading dose then 200 mg/dose b.i.d.; cited from earlier work

| Compound | infectious virus and total virus secreted (DENV2 strain 16681) | reduction in viral load or fever burden in patients (dengue infection) |
| --- | --- | --- |
| CCCC(=O)O[C@H]1CN2CC[C@H](O)[C@@H]2[C@@H](O)[C@@H]1O [Celgosivir, 6-O-butanoyl-castanospermine] | reduces infectious virus (solid lines) and total virus (dashed lines) secreted in a one-to-one ratio | failed to demonstrate reduction in viral load or fever burden |
| CCCCN1C[C@H](O)[C@@H](O)[C@H](O)[C@H]1CO [NB-DNJ, N-butyl-DNJ] | reduces infectious virus (solid lines) and total virus (dashed lines) secreted in a one-to-one ratio |  |
